Patent publication US12492188B2, “1H-benzo[D]imidazole derivatives as TLR9 inhibitors for the treatment of fibrosis” (BRISTOL-MYERS SQUIBB COMPANY, priority 2020, dated 2025)
Read-outs that look alike come from different tables or passages of the source.

Biological target: T1, human TLR9 (Homo sapiens, UniProt Q9NR96)
T1 construct: host or cells: HEK-Blue cells (HEK293-derived reporter line)
T1 sequence (Q9NR96 26-1032): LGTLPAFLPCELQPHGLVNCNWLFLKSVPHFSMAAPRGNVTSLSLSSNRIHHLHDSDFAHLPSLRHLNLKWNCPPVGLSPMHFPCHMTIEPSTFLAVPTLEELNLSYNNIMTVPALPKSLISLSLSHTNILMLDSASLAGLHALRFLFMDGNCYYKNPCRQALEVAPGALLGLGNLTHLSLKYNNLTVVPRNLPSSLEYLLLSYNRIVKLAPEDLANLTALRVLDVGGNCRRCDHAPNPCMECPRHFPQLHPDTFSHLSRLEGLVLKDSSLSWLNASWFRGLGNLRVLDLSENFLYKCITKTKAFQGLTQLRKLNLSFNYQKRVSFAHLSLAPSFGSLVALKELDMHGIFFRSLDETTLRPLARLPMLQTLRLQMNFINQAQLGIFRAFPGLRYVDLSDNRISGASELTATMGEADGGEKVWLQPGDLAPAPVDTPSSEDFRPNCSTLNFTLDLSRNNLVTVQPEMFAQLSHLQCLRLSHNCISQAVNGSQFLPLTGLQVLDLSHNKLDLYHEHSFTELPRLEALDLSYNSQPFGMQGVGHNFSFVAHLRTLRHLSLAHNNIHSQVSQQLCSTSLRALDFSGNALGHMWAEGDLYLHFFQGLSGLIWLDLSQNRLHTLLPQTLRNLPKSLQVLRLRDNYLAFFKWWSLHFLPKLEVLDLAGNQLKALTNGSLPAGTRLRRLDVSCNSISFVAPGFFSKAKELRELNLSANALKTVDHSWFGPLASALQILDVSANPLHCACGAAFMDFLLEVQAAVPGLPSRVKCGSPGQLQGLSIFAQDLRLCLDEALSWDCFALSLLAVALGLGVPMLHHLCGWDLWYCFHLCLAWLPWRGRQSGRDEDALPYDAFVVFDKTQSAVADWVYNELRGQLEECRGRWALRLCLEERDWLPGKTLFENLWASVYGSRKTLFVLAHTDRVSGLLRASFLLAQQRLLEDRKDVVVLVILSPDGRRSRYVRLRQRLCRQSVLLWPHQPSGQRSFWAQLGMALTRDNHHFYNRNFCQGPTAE
Assay: TLR9 inhibition reporter assay (HEK-Blue cells, secreted embryonic alkaline phosphatase reporter)
Type: cell-based
Method: TLR7/8/9 Inhibition Reporter Assays
HEK-Blue™-cells (Invivogen) overexpressing human TLR7, TLR8 or TLR9 receptors were used for screening inhibitors of these receptors using an inducible SLAP (secreted embryonic alkaline phosphatase) reporter gene under the control of the […] minimal promoter fused to five NF-κB and AP-1-binding sites. Briefly, cells are seeded into Greiner 384 well plates (15000 cells per well for TLR7, 20,000 for TLR8 and 25,000 for TLR9) and then treated with test compounds in DMSO to yield a final dose response concentration range of 0.05 nM-50 μM. After a 30 minute compound pre-treatment at room temperature, the cells are then stimulated with a TLR7 ligand (gardiquimod at a final concentration of 7.5 μM), TLR8 ligand (R848 at a final concentration of 15.9 μM) or TLR9 ligand (ODN2006 at a final concentration of 5 nM) to activate NF-κB and AP-1 which induce the production of SLAP. After a 22 hour incubation at 37° C., […], SLAP levels are determined with the addition of HEK-Blue™ Detection reagent (Invivogen), a cell culture medium that allows for detection of SLAP, according to manufacturer's specifications. The percent inhibition is determined as the […] in the HEK-Blue signal present in wells treated with agonist plus DMSO alone compared to wells treated with a known inhibitor.

[1] = HEK-Blue cells overexpressing human TLR9, stimulated with ODN2006 5 nM, read-out: TLR 9 IC50
[2] = HEK-Blue cells overexpressing human TLR9, stimulated with ODN2006 5 nM, 22 hour incubation, reporter readout
[3] = HEK-Blue human TLR9 reporter cells

| IC50 [µM] | IC50 [1] [µM] | IC50 [2] [µM] | IC50 [3] [µM] | SMILES |
| --- | --- | --- | --- | --- |
| 0.16 | 0.163 | – | – | Cc1cc(C2CCN(C3CC4CCC(C3)N4CC3CC3)CC2)cc2c1nc(-c1ccc(S(C)(=O)=O)cc1)n2C (single isomer, unassigned) [Example 155, 6-(1-(8-(cyclopropylmethyl)-8-azabicyclo[3.2.1]octan-3-yl)piperidin-4-yl)-1,4-dimethyl-2-(4-(methylsulfonyl)phenyl)-1H-benzo[d]imidazole] |
| 0.032 | 0.032 | – | – | COc1ccc(-c2nc3c(C)cc(C4CCN(C5CC6CCC(C5)N6CC5CCC5)CC4)cc3n2C)cc1OC (single isomer, unassigned) [Example 150, 6-(1-(8-(cyclobutylmethyl)-8-azabicyclo[3.2.1]octan-3-yl)piperidin-4-yl)-2-(3,4-dimethoxyphenyl)-1,4-dimethyl-1H-benzo[d]imidazole] |
| – | 0.18 | – | 0.18 | Cc1cc(C2CCN(C3CC4CCC(C3)N4C(C)C)CC2)cc2[nH]c(-c3ccc(S(C)(=O)=O)c(F)c3)nc12 (stereo not drawn) [Example 348, 2-(3-fluoro-4-(methylsulfonyl)phenyl)-6-(1-(8-isopropyl-8-azabicyclo[3.2.1]octan-3-yl)piperidin-4-yl)-4-methyl-1H-benzo[d]imidazole] |
| – | 0.055 | – | 0.055 | Cc1cc(C2CCN(C3CC4CCC(C3)N4C3CCC3)CC2)cc2[nH]c(-c3ccc(S(C)(=O)=O)c(F)c3)nc12 (stereo not drawn) [Example 350, 6-(1-(8-cyclobutyl-8-azabicyclo[3.2.1]octan-3-yl)piperidin-4-yl)-2-(3-fluoro-4-(methylsulfonyl)phenyl)-4-methyl-1H-benzo[d]imidazole] |
| – | 0.026 | – | 0.026 | Cc1cc(C2CCN(C3CC4CCC(C3)N4CC3CC3)CC2)cc2[nH]c(-c3ccc(S(C)(=O)=O)c(F)c3)nc12 (stereo not drawn) [Example 352, 6-(1-(8-(cyclopropylmethyl)-8-azabicyclo[3.2.1]octan-3-yl)piperidin-4-yl)-2-(3-fluoro-4-(methylsulfonyl)phenyl)-4-methyl-1H-benzo[d]imidazole] |
| – | 0.044 | – | 0.044 | Cc1cc(C2CCN(C3CC4CCC(C3)N4C3CC3)CC2)cc2[nH]c(-c3ccc(S(C)(=O)=O)c(F)c3)nc12 (stereo not drawn) [Example 347, 6-(1-(8-cyclopropyl-8-azabicyclo[3.2.1]octan-3-yl)piperidin-4-yl)-2-(3-fluoro-4-(methylsulfonyl)phenyl)-4-methyl-1H-benzo[d]imidazole] |
| – | 0.889 | 0.89 | – | Cc1cc(C2CCN(C3CC4CCC(C3)N4C3CCC3)CC2)cc2c1nc(-c1ccc(S(C)(=O)=O)c(F)c1)n2C (single isomer, unassigned) [Example 123, 6-(1-(8-cyclobutyl-8-azabicyclo[3.2.1]octan-3-yl)piperidin-4-yl)-2-(3-fluoro-4-(methylsulfonyl)phenyl)-1,4-dimethyl-1H-benzo[d]imidazole] |
| – | 0.02 | – | 0.021 | COc1cc(-c2nc3c(C)cc(C4CCN(C5CC6CCC(C5)N6C5CCC5)CC4)cc3[nH]2)cn2ncnc12 (stereo not drawn) [Example 361, 6-(6-(1-(8-cyclobutyl-8-azabicyclo[3.2.1]octan-3-yl)piperidin-4-yl)-4-methyl-1H-benzo[d]imidazol-2-yl)-8-methoxy-[1,2,4]triazolo[1,5-a]pyridine] |

The remaining lines, values behind:

| SMILES | IC50 [µM] | IC50 [1] [µM] | IC50 [2] [µM] | IC50 [3] [µM] |
| --- | --- | --- | --- | --- |
| COc1ccc(-c2nc3cc(F)c(C4CCN(C5CCN(C6CC6)CC5)CC4)cc3[nH]2)cc1OC [Example 131, 6-(1′-cyclopropyl-[1,4′-bipiperidin]-4-yl)-2-(3,4-dimethoxyphenyl)-5-fluoro-1H-benzo[d]imidazole] | 0.059 | 0.059 | – | – |
| Cc1cc(-c2ccc(CN3CCN(CC(C)C)CC3)cc2)cc2c1nc(-c1ccc(S(C)(=O)=O)cc1)n2C [Example 414, 6-(4-((4-isobutylpiperazin-1-yl)methyl)phenyl)-1,4-dimethyl-2-(4-(methylsulfonyl)phenyl)-1H-benzo[d]imidazole] | – | – | 1.8 | – |
| CS(=O)(=O)c1ccc(-c2nc3c(F)cc(C4CCN(C5CCN(CC6CC6)CC5)CC4)cc3n2C2CC2)cc1 [Example 320, 1-cyclopropyl-6-(1′-(cyclopropylmethyl)-[1,4′-bipiperidin]-4-yl)-4-fluoro-2-(4-(methylsulfonyl)phenyl)-1H-benzo[d]imidazole] | – | 0.077 | – | 0.077 |
| Cc1cc(C2CCN(C3CCN(CC(C)C)CC3)CC2)cc2[nH]c(-c3ccc4c(c3)OC(F)(F)O4)nc12 [Example 65, 2-(2,2-difluorobenzo[d][1,3]dioxol-5-yl)-6-(1′-isobutyl-[1,4′-bipiperidin]-4-yl)-4-methyl-1H-benzo[d]imidazole tris(2,2,2-trifluoroacetate)] | – | 0.297 | 0.3 | – |
| Cc1cc2nc(-c3ccc(S(C)(=O)=O)cc3)n(C)c2cc1C1CCN(C2CCN(C(C)C)CC2)CC1 [Example 120, 6-(1′-isopropyl-[1,4′-bipiperidin]-4-yl)-1,5-dimethyl-2-(4-(methylsulfonyl)phenyl)-1H-benzo[d]imidazole] | – | 0.178 | 0.18 | – |
| COc1ccc(-c2nc3cc(F)c(C4CCN(C5CCN(C(C)C)CC5)CC4)cc3[nH]2)cc1OC [Example 129, 2-(3,4-dimethoxyphenyl)-5-fluoro-6-(1′-isopropyl-[1,4′-bipiperidin]-4-yl)-1H-benzo[d]imidazole] | 0.19 | 0.185 | – | – |
| Cc1cc(C2CCN(C3CCN(CC(C)C)CC3)CC2)cc2[nH]c(-c3ccc(C4CC4)cc3)nc12 [Example 68, 2-(4-cyclopropylphenyl)-6-(1′-isobutyl-[1,4′-bipiperidin]-4-yl)-4-methyl-1H-benzo[d]imidazole] | – | 0.085 | 0.085 | – |
| Cc1cc(C2CCN(C3CC4(C3)CN(C(C)C)C4)CC2)cc2c1nc(-c1ccc(S(C)(=O)=O)cc1)n2C [Example 139, 6-(1-(2-isopropyl-2-azaspiro[3.3]heptan-6-yl)piperidin-4-yl)-1,4-dimethyl-2-(4-(methylsulfonyl)phenyl)-1H-benzo[d]imidazole] | 0.21 | 0.211 | – | – |
| Cc1cc(C2CCN(C3CCN(CC(C)C)CC3)CC2)cc2[nH]c(-c3cccc4cccnc34)nc12 [Example 82, 8-(6-(1′-isobutyl-[1,4′-bipiperidin]-4-yl)-4-methyl-1H-benzo[d]imidazol-2-yl)quinoline] | – | 0.032 | 0.032 | – |
| Cc1cc(C2CCN(C3CCCN(CC4CCC4)CC3)CC2)cc2c1nc(-c1ccc(S(C)(=O)=O)cc1)n2C (stereo not drawn) [Example 138, 6-(1-(1-(cyclobutylmethyl)azepan-4-yl)piperidin-4-yl)-1,4-dimethyl-2-(4-(methylsulfonyl)phenyl)-1H-benzo[d]imidazole] | 0.062 | 0.062 | – | – |
| Cc1cc(C2CCN(C3CCCN(CC(C)C)CC3)CC2)cc2c1nc(-c1ccc(S(C)(=O)=O)cc1)n2C (stereo not drawn) [Example 136, 6-(1-(1-isobutylazepan-4-yl)piperidin-4-yl)-1,4-dimethyl-2-(4-(methylsulfonyl)phenyl)-1H-benzo[d]imidazole] | 0.14 | 0.136 | – | – |
| COc1ccc(-c2nc3ccc(C4CCN(C5CCN(CC(C)C)CC5)CC4)c(F)c3[nH]2)cc1OC [Example 133, 2-(3,4-dimethoxyphenyl)-7-fluoro-6-(1′-isobutyl-[1,4′-bipiperidin]-4-yl)-1H-benzo[d]imidazole] | 2.2 | 2.2 | – | – |
